Columns and labels:
E. coli = assay type: cell-based, Escherichia coli
B. anthracis = assay type: cell-based, Bacillus anthracis
B. megaterium = assay type: cell-based
B. subtilis = assay type: cell-based
B. cereus strains = assay type: cell-based
Staphylococcus aureus = assay type: cell-based
Klebsiella pneumoniae = assay type: cell-based
Citrobacter freundii = assay type: cell-based
B. thuringiensis = assay type: cell-based
mold colonies = assay type: cell-based
[1] = test system: 13 diverse bacterial stock species; assay type: cell-based
[2] = test system: non-anthracis gram positive species; assay type: cell-based

Molecule: [H]/N=C(/N)N[C@H]1[C@H](O)[C@@H](O)[C@H](O[C@@H]2O[C@@H](C)[C@](O)(C=O)[C@H]2O[C@@H]2O[C@@H](CO)[C@H](O)[C@@H](O)[C@@H]2NC)[C@@H](N/C(N)=N\[H])[C@@H]1O [streptomycin]
- growth of E. coli strains (E. coli): inhibited

Molecule: CO/N=C(\C(=O)N[C@@H]1C(=O)N2C(C(=O)O)=C(COC(C)=O)CS[C@H]12)c1csc(N)n1 [cefotaxime]
- appearance of B. anthracis colonies (B. anthracis): failed to appear
- growth of B. megaterium (B. megaterium): inhibited
- growth of B. subtilis (B. subtilis): inhibited
- growth of some strains of B. cereus (B. cereus strains): grow to form colonies
- growth of Staphylococcus aureus (Staphylococcus aureus): inhibited
- growth of E. coli (E. coli): inhibited
- growth of Klebsiella pneumoniae (Klebsiella pneumoniae): inhibited
- growth of Citrobacter freundii (Citrobacter freundii): inhibited
- growth of B. thuringiensis (B. thuringiensis): inhibited

Molecule: lysostaphin
- effect on B. anthracis growth (B. anthracis): without affecting
- effect on Staphylococcus aureus growth (Staphylococcus aureus): severely retarded

Molecule: polymyxin B sulfate
- growth of E. coli strains (E. coli): not inhibited

Molecule: C[C@@H]1C[C@@H]([C@H](O)CC2CC(=O)NC(=O)C2)C(=O)[C@@H](C)C1 [cycloheximide]
- effect on mold contamination (mold colonies): eliminated all mold contamination
- effect on pattern of bacterial growth [1]: did not alter the pattern of bacterial growth

Molecule: CC(=O)[O-].[Tl+] [thallous acetate]
- B. anthracis growth and colony formation (B. anthracis): allowed B. anthracis to grow readily and form colonies
- delay of appearance of visible B. anthracis colonies (B. anthracis): delayed approximately one day
- restriction of growth of non-anthracis gram positive species including some B. cereus strains [2]: not sufficiently restrictive
- restriction of non-anthracis gram positive spore forming species (including some B. cereus strains) [2]: adequately restrictive
- susceptibility of Staphylococcus aureus (Staphylococcus aureus): completely resistant

Molecule: O=C([O-])CN(CCN(CC(=O)O)CC(=O)O)CC(=O)[O-].[Na+].[Na+] [EDTA, disodium ethylenediaminetetraacetate]
- effect on B. anthracis growth (B. anthracis): undesirably inhibiting
- effect on Staphylococcus aureus growth (Staphylococcus aureus): no effect
